From US20140096967A1, “SALT-TOLERANT ANIONIC SURFACTANT COMPOSITIONS FOR ENHANCED OIL RECOVERY (EOR) APPLICATIONS” (Board of Regents, The University of Texas System, priority 2012, published 2014)
Read-outs that look alike come from different tables or passages of the source. Marks after values point to notes of the source that are not given here.

Experiments:
[1] = data from Mukerjee et al. (1971), cited from earlier work
[2] = conventional sodium alkylsulfates; data from O'Lenick; cited from earlier work
[3] = Static adsorption test on disaggregated Berea sandstone core particles; type: physicochemical; settings: 10,000 mg/L NaCl, LSR of 40, 12 hrs. equilibration at 25° C. (FIG. 19)
Text: Static Adsorption Tests. A static adsorption test was used for measuring surfactant adsorption at solid-water interfaces. The procedures were adopted from the study by Hanna et al. (1977). The adsorbents used for static adsorption tests were particles disaggregated from a Berea sandstone core and sieved through a 60 mesh screen ([…]). The use of 60 mesh screen is based on the consideration that a wider and thus more representative range of particle sizes could be included. The adsorbent grains were heated in the oven overnight and cooled in a desiccator over Drierite™ before use. The surfactant concentration was measured by Total Organic Carbon (TOC) method, which represents the amount of total carbon in the sample. […] The amount of surfactant adsorbed was determined by measuring different concentrations in the solution before and after contact with the adsorbents,
Where Γ (mg/g) is the surfactant adsorption density on the adsorbents; Co and C (mg/L) are surfactant concentrations before and after adsorption tests; V (ml) is the volume of surfactant solution used in the test, and M (gram) is the mass of the adsorbents used in the test. A dimensionless quantity θ can be defined as follows: […]
Equilibrium Adsorption Time. To ensure true equilibrium adsorption, the progression of 16-4-16 adsorption level with time was recorded to identify a suitable duration for equilibration. […]

| SMILES | CMC ([1]; 40° C.) | Krafft Point [2] | maximum adsorption density, trend among surfactants [3] | CMC ([1]; 30° C.) | CMC ([1]; 60° C.) |
| --- | --- | --- | --- | --- | --- |
| CCCCCCCCCCCCCCCCOS(=O)(=O)[O-].[Na+] [C16—SO4^− Na^+, sodium hexadecyl sulfate] | 580** 10^−3 mmol/L | 45* ° C. | 16-4-16<SHS<S13-C |  |  |
| CCCCCCCCCCCCOS(=O)(=O)[O-].[Na+] [C12—SO4^− Na^+] | 8600** 10^−3 mmol/L | 16* ° C. |  | 8230** 10^−3 mmol/L | 10160** 10^−3 mmol/L |
| CCCCCCCCCCCCCCOS(=O)(=O)[O-].[Na+] [C14—SO4^− Na^+] | 2210** 10^−3 mmol/L | 28* ° C. |  | 2080** 10^−3 mmol/L | 2770** 10^−3 mmol/L |
